Here are results for one compound from publication PMC12398856, “A GLP-1 analogue optimized for cAMP-biased signaling improves weight loss in obese mice” (Molecular Metabolism, 2025).

The target in data set [1] is T1, GLP-1R (Homo sapiens, UniProt P43220). The experiment in a line: CRE-Luciferase reporter assay (cAMP production) in BHK cells expressing GLP-1R. The settings on record: read-out: Log(data) cAMP EC50 (converted). The format is cell-based. For orientation: In a reporter assay the amount or activity of a reporter protein is the signal.
Target sequence in this assay (P43220 24-463, species assumed): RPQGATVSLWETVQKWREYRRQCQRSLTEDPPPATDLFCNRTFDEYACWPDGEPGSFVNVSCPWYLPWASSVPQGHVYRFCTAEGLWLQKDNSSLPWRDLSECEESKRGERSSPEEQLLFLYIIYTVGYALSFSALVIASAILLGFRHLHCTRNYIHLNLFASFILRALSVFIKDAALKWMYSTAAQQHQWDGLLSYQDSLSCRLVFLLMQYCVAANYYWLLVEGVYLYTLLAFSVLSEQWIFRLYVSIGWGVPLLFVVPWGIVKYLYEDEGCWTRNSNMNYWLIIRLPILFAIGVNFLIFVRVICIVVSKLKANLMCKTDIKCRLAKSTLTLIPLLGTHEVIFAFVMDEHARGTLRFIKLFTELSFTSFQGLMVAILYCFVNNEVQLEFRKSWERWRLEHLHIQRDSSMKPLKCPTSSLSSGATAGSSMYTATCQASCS
Protocol: Briefly, stably transfected baby hamster kidney (BHK) cell lines expressing GLP-1R and firefly luciferase reporter gene linked to the cAMP response element (CRE) were seeded in poly-D-lysine-coated 96 well opaque well tissue culture plates at 5,000 cells per well in growth media, incubated overnight, and washed once in Dulbecco's phosphase-buffered saline (DPBS). To each well was added 50 μL of assay buffer (DMEM without phenol red, 10 mM HEPES, 1 × Glutamax, 1% ovalbumin, 0.1% Pluronic F-68) containing serial dilutions of test compounds. The test plates were incubated at 37 °C for 3 h in a CO2 incubator, then washed once with 100 uL per well of DPBS followed by addition of 100 μL per well of SteadyLite plus reagent (PerkinElmer). The assay plates were covered to protect reagent from light, shaken at 250 rpm at room temperature for 30 min, and read in a microtiter plate reader. EC50 values were calculated using Prism software (GraphPad) as the nonlinear regression of log(compound concentration) vs. response.
Data set [2] deals with T1, GLP-1R. Description: β-arrestin recruitment (Barr) at GLP-1R, Supplemental Table 1. The format is cell-based. The conditions noted are these: negative log10 of EC50; read-out: Log(data) Barr EC50 (converted).
Target sequence in this assay (P43220 24-463, species assumed): as above
Another data set in a line: in vivo. The settings on record: mouse, sc, t1/2.
In data set [3] the target is T1, GLP-1R. The experiment in a line: BRET-based cAMP production assay (CAMYEL sensor) in GLP-1R+ HEK293T cells. The format is cell-based. The arrangement: host or cells: HEK293T (ATCC), transient transfection with Lipofectamine 2000. (Bioluminescence resonance energy transfer reports proximity on the nanometre scale.)
Target sequence in this assay (P43220 24-463): as the sequence (P43220 24-463, species assumed) above
Protocol: Briefly, HEK293T cells (ATCC) were cultured in Dulbecco's Modified Eagle Medium (DMEM) supplemented with 10% heat-inactivated fetal bovine serum (FBS), 100 IU/mL of penicillin, and 100 mg/mL of streptomycin solution. […] BRET measurements were taken every 60 s using a PHERAstar FS multi-mode microplate reader. Ligand-induced dynamics in GLP-1R signaling or trafficking were measured as subsequent changes relative to baseline (after time point zero). Each experiment was independently performed at least three times, with at least three technical replicates for each group. Positive or negative incremental areas under the curve (iAUC) were calculated and represented for dose–response relationships.

Protocol for in vivo: Thus, the PK profiles are an overall average of 8 mice/group and 4 mice/subgroup sampled at each time point. […] Briefly, plasma concentration–time profiles were analyzed by a non-compartmental method (Pharsight Phoenix WinNonLin v.6.4). The terminal half-life (t1/2), maximum plasma concentration (Cmax), time for maximum plasma concentration (tmax), and AUC from zero to last (AUC0-t) were determined.
Briefly, plasma proteins were precipitated by mixing plasma samples with 6 volumes of methanol-containing internal standard in micronic 1.5 mL microcentrifuge tubes, followed by centrifugation for 20 min at 13,000×g. The supernatant was transferred to a 96-well plate and diluted with water containing 0.1% formic acid and mixed thoroughly. Diluted samples were injected into the LC-MS/MS system. […] The mass spectrometric detection was performed on a Thermo Scientific TSQ Quantis triple quadrupole system with electrospray ionization in positive ion mode.

One may read the EC50 as the concentration needed to bring the measured effect to its halfway point. As usually defined, the half-life is how long it takes for the measured level to halve. Read a high half-life as slow decline. Take `CC[C@H](C)[C@H](NC(=O)[C@H](Cc1ccccc1)NC(=O)[C@H](CCC(=O)O)NC(=O)[C@H](CCCNC(=N)N)NC(=O)[C@H](C)NC(=O)[C@H](C)NC(=O)[C@H](CCC(N)=O)NC(=O)[C@H](CCC(=O)O)NC(=O)[C@H](CCC(=O)O)NC(=O)[C@H](CC(C)C)NC(=O)[C@H](Cc1ccc(O)cc1)NC(=O)[C@H](CO)NC(=O)[C@H](CO)NC(=O)[C@@H](NC(=O)[C@H](CC(=O)O)NC(=O)[C@H](CO)NC(=O)[C@@H](NC(=O)[C@H](Cc1ccccc1)NC(=O)[C@@H](NC(=O)CNC(=O)[C@H](CCC(=O)O)NC(=O)[C@H](Cc1c[nH]c2ccccc12)NC(=O)CCc1c[nH]cn1)[C@@H](C)O)[C@@H](C)O)C(C)C)C(=O)N[C@@H](C)C(=O)N[C@@H](Cc1c[nH]c2ccccc12)C(=O)N[C@@H](CC(C)C)C(=O)N[C@H](C(=O)N[C@@H](CCCNC(=N)N)C(=O)NCC(=O)N[C@@H](CCCNC(=N)N)C(=O)N[C@@H](CCCCNC(=O)COCCOCCNC(=O)COCCOCCNC(=O)CC[C@H](NC(=O)CCCCCCCCCCCCCCCCC(=O)O)C(=O)O)C(=O)O)C(C)C` [NNC5840]: the EC50 at GLP-1R [1] is 0.0192 nM; on GLP-1R [2] it was 20.1 nM; on GLP-1R [3], 73.9 nM. Moreover, the half-life in the data set “in vivo” is 21.7 h.
